Among the data in ChEMBL document CHEMBL4765420, “Design, synthesis and biological evaluation of novel HDAC inhibitors with improved pharmacokinetic profile in breast cancer” (Eur J Med Chem, 2020) are Activity, IC50 and inhibition values, retold here.

Assay [1] relates to MDA-MB-231. In words: Induction of apoptosis in human MDA-MB-231 cells assessed as necrotic cells at 2.5 uM measured after 24 hrs by Annexin-V/propidium iodide staining based flow cytometry (reference value: 0.22 to 0.46%). It is filed as functional. (A flow cytometer gives signals particle by particle.)
For assay [2], the system named is MDA-MB-231. The assay can be described thus: Antiproliferative activity against human MDA-MB-231 cells measured after 96 hrs by MTT assay. It is filed as functional, cell-based. The conditions noted are these: MDA-MB-231, 96 h. (Tetrazolium dyes change colour on reduction, which living cells bring about.)
Assay [3] relates to MDA-MB-231. The assay can be described thus: Induction of apoptosis in human MDA-MB-231 cells assessed as early apoptotic cells at 10 uM measured after 24 hrs by Annexin-V/propidium iodide staining based flow cytometry (reference value: 0.69 to 0.92%). It is filed as functional.
Assay [4] deals with MDA-MB-231. The assay can be described thus: Induction of apoptosis in human MDA-MB-231 cells assessed as down regulation of Bcl-2 expression at 2.5 to 10 uM measured after 24 hrs by Western blot analysis. It is filed as functional, cell-based. The conditions noted are these: dose 2.5-10 µM. In general terms: Immunoblotting shows a protein as a band on a membrane.
The subject of assay [5] is MDA-MB-231. In words: Antiproliferative activity against human MDA-MB-231 cells measured after 48 hrs by MTT assay. The conditions noted are these: MDA-MB-231, 48 h. It is filed as functional, cell-based.
For assay [6], the system named is MDA-MB-231. The assay can be described thus: Inhibition of cell migration in human MDA-MB-231 cells measured after 24 hrs by phase-contrast microscopy based wound healing assay. It is filed as functional.
The target in the next assay is Histone deacetylase 4 (Homo sapiens, UniProt P56524). In words: Inhibition of recombinant human N-terminal GST-tagged HDAC4 (627 to end residues) expressed in baculovirus infected Sf9 insect cells using AcLeu-Gly-Lys(Tfa)-AMC as substrate measured after 30 mins by fluorescence assay.
The subject of assay [7] is MDA-MB-231. The assay can be described thus: Induction of apoptosis in human MDA-MB-231 cells assessed as early apoptotic cells at 2.5 uM measured after 24 hrs by Annexin-V/propidium iodide staining based flow cytometry (reference value: 0.69 to 0.92%). The format is functional.
The next assay concerns the target Histone deacetylase 9 (Homo sapiens, UniProt Q9UKV0). The assay can be described thus: Inhibition of recombinant human full-length N-terminal GST-tagged HDAC9 (1 to 1069 residues) expressed in wheat germ expression system using Ac-Leu-Gly-Lys(Tfa)-AMC as substrate measured after 30 mins by fluorescence assay.
For assay [8], the target named is T1, Polyamine deacetylase HDAC10 (Homo sapiens, UniProt Q969S8).
T1 sequence (Q969S8 whole entry): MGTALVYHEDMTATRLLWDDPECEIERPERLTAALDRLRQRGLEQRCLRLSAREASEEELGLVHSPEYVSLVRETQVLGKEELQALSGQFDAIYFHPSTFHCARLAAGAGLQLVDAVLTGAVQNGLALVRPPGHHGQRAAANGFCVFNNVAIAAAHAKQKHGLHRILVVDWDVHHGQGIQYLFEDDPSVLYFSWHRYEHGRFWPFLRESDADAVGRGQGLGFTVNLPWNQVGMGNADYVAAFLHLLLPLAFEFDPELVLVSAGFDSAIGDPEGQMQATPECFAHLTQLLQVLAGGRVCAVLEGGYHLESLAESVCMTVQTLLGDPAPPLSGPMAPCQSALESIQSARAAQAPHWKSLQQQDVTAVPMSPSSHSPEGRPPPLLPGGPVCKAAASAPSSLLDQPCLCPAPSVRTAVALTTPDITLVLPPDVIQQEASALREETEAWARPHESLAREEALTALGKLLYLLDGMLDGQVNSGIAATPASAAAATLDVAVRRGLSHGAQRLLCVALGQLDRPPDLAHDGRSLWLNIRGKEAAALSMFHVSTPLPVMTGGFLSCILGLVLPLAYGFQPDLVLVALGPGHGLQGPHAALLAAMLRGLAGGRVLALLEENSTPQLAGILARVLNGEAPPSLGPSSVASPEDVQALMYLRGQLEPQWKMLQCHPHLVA
In words: Inhibition of recombinant human C-terminal His-tagged HDAC10 expressed in baculovirus infected Sf9 insect cells using Ac-Arg-His-Lys(Ac)-Lys(Ac)-AMC as substrate measured after 30 mins by fluorescence assay.

Assay [9] has as its system MDA-MB-231. In words: Induction of apoptosis in human MDA-MB-231 cells assessed as increase in DNA fragmentation at 2.5 to 10 uM measured after 24 hrs by Hoechst 33258 staining based immunofluorescence assay. The settings on record: dose 2.5-10 µM. It is filed as functional, cell-based.
The test system of assay [10] is MDA-MB-231. The assay can be described thus: Induction of apoptosis in human MDA-MB-231 cells assessed as early apoptotic cells at 5 uM measured after 24 hrs by Annexin-V/propidium iodide staining based flow cytometry (reference value: 0.69 to 0.92%). The format is functional.
The target in assay [11] is T2, Protein deacetylase HDAC6 (Homo sapiens) (UniProt Q9UBN7).
T2 sequence (whole entry): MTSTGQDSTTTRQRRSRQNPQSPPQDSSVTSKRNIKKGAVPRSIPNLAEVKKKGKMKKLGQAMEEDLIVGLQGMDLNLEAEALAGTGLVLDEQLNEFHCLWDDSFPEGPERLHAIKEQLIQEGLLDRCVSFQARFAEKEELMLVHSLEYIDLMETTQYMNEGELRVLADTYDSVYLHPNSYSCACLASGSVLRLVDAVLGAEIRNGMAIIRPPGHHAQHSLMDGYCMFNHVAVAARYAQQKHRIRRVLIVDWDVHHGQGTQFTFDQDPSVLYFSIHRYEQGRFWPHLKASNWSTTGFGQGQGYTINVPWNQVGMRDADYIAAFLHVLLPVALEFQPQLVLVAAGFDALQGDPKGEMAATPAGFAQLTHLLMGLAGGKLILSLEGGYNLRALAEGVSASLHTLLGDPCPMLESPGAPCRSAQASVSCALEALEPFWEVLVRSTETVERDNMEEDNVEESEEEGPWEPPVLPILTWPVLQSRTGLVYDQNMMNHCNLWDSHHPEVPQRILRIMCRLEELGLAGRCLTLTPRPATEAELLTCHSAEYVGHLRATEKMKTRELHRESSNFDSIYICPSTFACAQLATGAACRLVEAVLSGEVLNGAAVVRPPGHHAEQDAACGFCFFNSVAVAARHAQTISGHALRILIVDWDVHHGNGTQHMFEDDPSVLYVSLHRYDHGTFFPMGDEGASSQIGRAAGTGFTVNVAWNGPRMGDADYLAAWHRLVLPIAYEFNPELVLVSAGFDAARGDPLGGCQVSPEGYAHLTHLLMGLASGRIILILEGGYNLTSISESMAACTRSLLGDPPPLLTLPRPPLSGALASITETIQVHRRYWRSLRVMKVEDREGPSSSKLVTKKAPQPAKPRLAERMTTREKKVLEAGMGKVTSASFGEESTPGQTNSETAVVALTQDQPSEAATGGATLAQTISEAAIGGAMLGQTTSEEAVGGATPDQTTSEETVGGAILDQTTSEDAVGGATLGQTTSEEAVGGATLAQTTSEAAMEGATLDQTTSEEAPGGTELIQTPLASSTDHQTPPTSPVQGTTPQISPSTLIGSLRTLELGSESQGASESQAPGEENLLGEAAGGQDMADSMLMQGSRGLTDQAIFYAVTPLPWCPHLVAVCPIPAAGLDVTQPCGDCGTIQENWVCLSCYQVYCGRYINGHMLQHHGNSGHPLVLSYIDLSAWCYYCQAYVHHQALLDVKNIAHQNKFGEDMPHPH
The assay can be described thus: Inhibition of HDAC6 in human MDA-MB-231 cells assessed as increase in alpha-tubulin acetylation at 2.5 to 10 uM measured after 24 hrs by Western blot analysis. The format is cell-based. The conditions noted are these: dose 2.5-10 µM.

pIC50: −log10 of the molar value. Active and inactive are the calls of the source. No cut-off for these calls is given here.

Chain of Histone deacetylase 9 (Q9UKV0 whole entry, the tested form may be a part): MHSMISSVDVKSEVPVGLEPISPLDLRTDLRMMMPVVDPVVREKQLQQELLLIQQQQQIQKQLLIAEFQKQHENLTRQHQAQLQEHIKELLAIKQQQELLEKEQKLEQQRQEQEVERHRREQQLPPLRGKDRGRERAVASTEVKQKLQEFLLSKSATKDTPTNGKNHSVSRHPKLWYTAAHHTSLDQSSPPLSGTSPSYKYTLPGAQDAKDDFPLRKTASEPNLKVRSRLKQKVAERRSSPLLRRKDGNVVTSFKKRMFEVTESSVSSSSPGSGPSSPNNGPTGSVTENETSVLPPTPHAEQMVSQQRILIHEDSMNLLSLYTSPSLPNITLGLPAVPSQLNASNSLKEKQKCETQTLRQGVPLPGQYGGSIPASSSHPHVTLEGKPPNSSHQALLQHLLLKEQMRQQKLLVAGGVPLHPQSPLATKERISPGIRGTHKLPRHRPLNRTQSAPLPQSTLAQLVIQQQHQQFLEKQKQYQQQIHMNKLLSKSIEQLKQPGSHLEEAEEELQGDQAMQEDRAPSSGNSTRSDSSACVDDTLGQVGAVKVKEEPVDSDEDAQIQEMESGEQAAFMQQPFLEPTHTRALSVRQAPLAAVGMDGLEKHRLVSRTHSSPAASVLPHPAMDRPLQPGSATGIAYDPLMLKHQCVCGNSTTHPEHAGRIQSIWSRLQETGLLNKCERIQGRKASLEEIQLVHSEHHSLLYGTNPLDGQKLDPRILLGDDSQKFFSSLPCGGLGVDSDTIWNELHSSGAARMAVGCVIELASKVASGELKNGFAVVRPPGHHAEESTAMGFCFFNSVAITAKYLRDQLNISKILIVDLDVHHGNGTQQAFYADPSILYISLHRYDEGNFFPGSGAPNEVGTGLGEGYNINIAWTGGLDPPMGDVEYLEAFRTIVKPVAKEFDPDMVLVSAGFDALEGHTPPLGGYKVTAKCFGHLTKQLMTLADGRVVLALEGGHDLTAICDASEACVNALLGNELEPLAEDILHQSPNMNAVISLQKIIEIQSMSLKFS
Chain of Histone deacetylase 4 (P56524 whole entry): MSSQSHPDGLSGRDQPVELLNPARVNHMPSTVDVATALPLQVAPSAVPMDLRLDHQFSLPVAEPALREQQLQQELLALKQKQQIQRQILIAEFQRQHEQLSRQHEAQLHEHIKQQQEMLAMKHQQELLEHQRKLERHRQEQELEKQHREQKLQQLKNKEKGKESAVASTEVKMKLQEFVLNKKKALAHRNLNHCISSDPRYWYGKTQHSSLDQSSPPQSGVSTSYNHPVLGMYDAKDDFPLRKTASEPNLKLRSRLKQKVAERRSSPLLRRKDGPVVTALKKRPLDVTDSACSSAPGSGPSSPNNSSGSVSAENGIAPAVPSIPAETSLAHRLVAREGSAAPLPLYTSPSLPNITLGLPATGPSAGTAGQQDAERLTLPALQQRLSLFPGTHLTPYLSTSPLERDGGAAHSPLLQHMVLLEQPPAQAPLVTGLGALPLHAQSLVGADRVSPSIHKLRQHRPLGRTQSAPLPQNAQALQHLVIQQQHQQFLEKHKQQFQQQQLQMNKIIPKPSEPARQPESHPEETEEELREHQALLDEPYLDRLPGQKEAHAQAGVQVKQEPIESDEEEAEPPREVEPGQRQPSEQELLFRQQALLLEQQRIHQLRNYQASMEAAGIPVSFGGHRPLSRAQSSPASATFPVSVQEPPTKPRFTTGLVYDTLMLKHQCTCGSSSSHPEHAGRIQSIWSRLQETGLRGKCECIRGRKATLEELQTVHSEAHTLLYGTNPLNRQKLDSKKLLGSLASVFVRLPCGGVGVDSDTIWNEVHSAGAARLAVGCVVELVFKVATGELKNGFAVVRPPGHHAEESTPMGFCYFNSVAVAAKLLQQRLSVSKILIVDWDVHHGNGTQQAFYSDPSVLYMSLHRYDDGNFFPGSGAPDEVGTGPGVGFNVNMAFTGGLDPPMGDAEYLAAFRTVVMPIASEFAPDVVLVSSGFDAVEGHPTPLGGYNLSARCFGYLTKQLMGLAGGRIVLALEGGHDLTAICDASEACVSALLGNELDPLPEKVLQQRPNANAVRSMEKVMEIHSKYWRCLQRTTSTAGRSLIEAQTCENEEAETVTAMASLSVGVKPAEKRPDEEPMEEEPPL

By pIC50 is commonly meant the negative decadic logarithm of the IC50, by convention in mol/L. Regarding `COc1cc(OC)c2c(N3CCS(=O)(=O)CC3)nc(-c3cc(C)c(OCCCCCC(=O)NO)c(C)c3)nc2c1`, the Activity in the assay with MDA-MB-231 [1] worked out at 1.05%; in the assay with MDA-MB-231 [3], 38.66%; in the assay with MDA-MB-231 [7], 11.77%; in the assay with MDA-MB-231 [10], 16.28%. For the same compound, the pIC50 in the assay on MDA-MB-231 [2] was 5.87; in the assay with MDA-MB-231 [5], 5.82; on Histone deacetylase 4, less than 6.00; on Histone deacetylase 9, less than 6.00; in assay [8], 7.11. The result in the assay with MDA-MB-231 [4] and in the assay on MDA-MB-231 [9] was Active. The inhibition result in the assay on MDA-MB-231 [6] is “Dose-dependent effect”. Also, the inhibition entry in [11] was “Active”.
